# What was measured:
# OCT2 = system: OCT2; set-up: method as in printed; conditions: preclinical testing, ref not given; cited from earlier work
# [1] = system: patients with advanced solid tumours; assay: Phase 1 safety: treatment-related adverse events (CTCAE v4.03); format: in vivo, human
# Procedure: All patients who received at least one dose of CFI-400945 were included in analyses of the safety-evaluable population. Data cut-off for the safety-evaluable population was June 5, 2018. Adverse events (AEs) were assessed according to the National Cancer Institute (NCI) Common Terminology Criteria for Adverse Events (CTCAE) v4.03. Investigators determined the causal relationship of an AE as either unrelated, possibly, probably, or related to study drug. Further information is available in Supplementary Information 1d.
# Investigators managed any AE until resolution, stabilization, or until the AE was considered no longer clinically significant. All AE and serious AE (SAE) were recorded in source documents and individual case report forms from the time of first dose of study drug until 30 days following the last dose of study drug.
# Safety evaluations were conducted at screening and during Cycle 1 on Day 1, 2, 4, 8, 11, 15, 22, and 28. In the expansion cohort, following the run-in amendment, safety evaluations were conducted on Cycle 0 Day 1, 2, 4, 8, and 11, then as above for Cycle 1. Evaluations included pre-defined combinations of medical history, physical examination, vital signs, clinical laboratory studies, and ECOG performance status.
# [2] = safety-evaluable population (n = 52)
smiles,measurement,setting,value
COc1ccc2c(c1)[C@]1(C[C@H]1c1ccc3c(/C=C/c4ccc(CN5C[C@@H](C)O[C@@H](C)C5)cc4)n[nH]c3c1)C(=O)N2 [CFI-400945],inhibition of OCT2,OCT2,inhibitor
same,grade 2 neutropenia,[1]; 48 mg dose level,one patient
same,long-term tolerability: time one patient remained on treatment,"[1]; 48 mg, at data cut-off",> 3 years
same,patients dose reduced,[1]; 64 mg,No patients
same,patients dose reduced,"[1]; 3 patients, at 72 mg and 96 mg dose levels, recurrent neutropenia",6%
same,"Anorexia, treatment-related, Grade 1/2",[1]; 3–32 mg cohort (n = 21),4 (19) N (%)
same,"Anorexia, treatment-related, Grade 3/4",[1]; 3–32 mg cohort (n = 21),0 (0) N (%)
same,"Dehydration, treatment-related, Grade 1/2",[1]; 3–32 mg cohort (n = 21),1 (5) N (%)
same,"Dehydration, treatment-related, Grade 3/4",[1]; 3–32 mg cohort (n = 21),0 (0) N (%)
same,"Diarrhoea, treatment-related, Grade 1/2",[1]; 3–32 mg cohort (n = 21),4 (19) N (%)
same,"Diarrhoea, treatment-related, Grade 3/4",[1]; 3–32 mg cohort (n = 21),0 (0) N (%)
same,"Dyspepsia, treatment-related, Grade 1/2",[1]; 3–32 mg cohort (n = 21),1 (5) N (%)
same,"Dyspepsia, treatment-related, Grade 3/4",[1]; 3–32 mg cohort (n = 21),0 (0) N (%)
same,"Fatigue, treatment-related, Grade 1/2",[1]; 3–32 mg cohort (n = 21),5 (24) N (%)
same,"Fatigue, treatment-related, Grade 3/4",[1]; 3–32 mg cohort (n = 21),0 (0) N (%)
same,"Hypomagnesaemia, treatment-related, Grade 1/2",[1]; 3–32 mg cohort (n = 21),0 (0) N (%)
same,"Hypomagnesaemia, treatment-related, Grade 3/4",[1]; 3–32 mg cohort (n = 21),0 (0) N (%)
same,"Nausea, treatment-related, Grade 1/2",[1]; 3–32 mg cohort (n = 21),3 (14) N (%)
same,"Nausea, treatment-related, Grade 3/4",[1]; 3–32 mg cohort (n = 21),0 (0) N (%)
same,"Neutropenia, treatment-related, Grade 1/2",[1]; 3–32 mg cohort (n = 21),0 (0) N (%)
same,"Neutropenia, treatment-related, Grade 3/4",[1]; 3–32 mg cohort (n = 21),0 (0) N (%)
same,"Vomiting, treatment-related, Grade 1/2",[1]; 3–32 mg cohort (n = 21),1 (5) N (%)
same,"Vomiting, treatment-related, Grade 3/4",[1]; 3–32 mg cohort (n = 21),0 (0) N (%)
same,"Anorexia, All trAEs",[1]; 3–96 mg cohort (n = 52),10 (19) N (%)
same,"Dehydration, All trAEs",[1]; 3–96 mg cohort (n = 52),3 (6) N (%)
same,"Diarrhoea, All trAEs",[1]; 3–96 mg cohort (n = 52),11 (21) N (%)
same,"Dyspepsia, All trAEs",[1]; 3–96 mg cohort (n = 52),3 (6) N (%)
same,"Fatigue, All trAEs",[1]; 3–96 mg cohort (n = 52),19 (37) N (%)
same,"Hypomagnesaemia, All trAEs",[1]; 3–96 mg cohort (n = 52),3 (6) N (%)
same,"Nausea, All trAEs",[1]; 3–96 mg cohort (n = 52),14 (27) N (%)
same,"Neutropenia, All trAEs",[1]; 3–96 mg cohort (n = 52),11 (21) N (%)
same,"Vomiting, All trAEs",[1]; 3–96 mg cohort (n = 52),4 (8) N (%)
same,grade 3/4 neutropenic events occurring in Cycle 1,[1]; 6/10 events,60%
same,"grade 3/4 treatment-related neutropenia, patients","[1]; 10/52 patients, all dose levels",19%
same,patients with dose interruptions,[1]; 27 of 52 patients,52%
same,"Anorexia, treatment-related, Grade 1/2",[1]; 48–64 mg cohort (n = 18),2 (11) N (%)
same,"Anorexia, treatment-related, Grade 3/4",[1]; 48–64 mg cohort (n = 18),0 (0) N (%)
same,"Dehydration, treatment-related, Grade 1/2",[1]; 48–64 mg cohort (n = 18),1 (6) N (%)
same,"Dehydration, treatment-related, Grade 3/4",[1]; 48–64 mg cohort (n = 18),0 (0) N (%)
same,"Diarrhoea, treatment-related, Grade 1/2",[1]; 48–64 mg cohort (n = 18),3 (17) N (%)
same,"Diarrhoea, treatment-related, Grade 3/4",[1]; 48–64 mg cohort (n = 18),1 (6) N (%)
same,"Dyspepsia, treatment-related, Grade 1/2",[1]; 48–64 mg cohort (n = 18),1 (6) N (%)
same,"Dyspepsia, treatment-related, Grade 3/4",[1]; 48–64 mg cohort (n = 18),0 (0) N (%)
same,"Fatigue, treatment-related, Grade 1/2",[1]; 48–64 mg cohort (n = 18),9 (50) N (%)
same,"Fatigue, treatment-related, Grade 3/4",[1]; 48–64 mg cohort (n = 18),0 (0) N (%)
same,"Hypomagnesaemia, treatment-related, Grade 1/2",[1]; 48–64 mg cohort (n = 18),1 (6) N (%)
same,"Hypomagnesaemia, treatment-related, Grade 3/4",[1]; 48–64 mg cohort (n = 18),0 (0) N (%)
same,"Nausea, treatment-related, Grade 1/2",[1]; 48–64 mg cohort (n = 18),5 (28) N (%)
same,"Nausea, treatment-related, Grade 3/4",[1]; 48–64 mg cohort (n = 18),0 (0) N (%)
same,"Neutropenia, treatment-related, Grade 1/2",[1]; 48–64 mg cohort (n = 18),1 (6) N (%)
same,"Neutropenia, treatment-related, Grade 3/4",[1]; 48–64 mg cohort (n = 18),3 (17) N (%)
same,"Vomiting, treatment-related, Grade 1/2",[1]; 48–64 mg cohort (n = 18),1 (6) N (%)
same,"Vomiting, treatment-related, Grade 3/4",[1]; 48–64 mg cohort (n = 18),1 (6) N (%)
same,"Anorexia, treatment-related, Grade 1/2",[1]; 72–96 mg cohort (n = 13),4 (31) N (%)
same,"Anorexia, treatment-related, Grade 3/4",[1]; 72–96 mg cohort (n = 13),0 (0) N (%)
same,"Dehydration, treatment-related, Grade 1/2",[1]; 72–96 mg cohort (n = 13),1 (8) N (%)
same,"Dehydration, treatment-related, Grade 3/4",[1]; 72–96 mg cohort (n = 13),0 (0) N (%)
same,"Diarrhoea, treatment-related, Grade 1/2",[1]; 72–96 mg cohort (n = 13),3 (23) N (%)
same,"Diarrhoea, treatment-related, Grade 3/4",[1]; 72–96 mg cohort (n = 13),0 (0) N (%)
same,"Dyspepsia, treatment-related, Grade 1/2",[1]; 72–96 mg cohort (n = 13),1 (8) N (%)
same,"Dyspepsia, treatment-related, Grade 3/4",[1]; 72–96 mg cohort (n = 13),0 (0) N (%)
same,"Fatigue, treatment-related, Grade 1/2",[1]; 72–96 mg cohort (n = 13),5 (38) N (%)
same,"Fatigue, treatment-related, Grade 3/4",[1]; 72–96 mg cohort (n = 13),0 (0) N (%)
same,"Hypomagnesaemia, treatment-related, Grade 1/2",[1]; 72–96 mg cohort (n = 13),2 (15) N (%)
same,"Hypomagnesaemia, treatment-related, Grade 3/4",[1]; 72–96 mg cohort (n = 13),0 (0) N (%)
same,"Nausea, treatment-related, Grade 1/2",[1]; 72–96 mg cohort (n = 13),6 (46) N (%)
same,"Nausea, treatment-related, Grade 3/4",[1]; 72–96 mg cohort (n = 13),0 (0) N (%)
same,"Neutropenia, treatment-related, Grade 1/2",[1]; 72–96 mg cohort (n = 13),0 (0) N (%)
same,"Neutropenia, treatment-related, Grade 3/4",[1]; 72–96 mg cohort (n = 13),7 (54) N (%)
same,"Vomiting, treatment-related, Grade 1/2",[1]; 72–96 mg cohort (n = 13),1 (8) N (%)
same,"Vomiting, treatment-related, Grade 3/4",[1]; 72–96 mg cohort (n = 13),0 (0) N (%)
same,median time for neutrophils to recover to grade ≤1,[1]; in vivo,7 days
same,median time to first grade 3/4 neutropenic event,[1]; in vivo,18 days
same,"time for neutrophils to recover to grade ≤1, range",[1]; in vivo,6 to 14 days
same,"time to first grade 3/4 neutropenic event, range",[1]; in vivo,14 to 126 days
same,treatment-related AEs leading to study discontinuation,"[1]; one DLT at 72 mg, one DLT in 64 mg cohort",two patients
same,"treatment-related anorexia, patients",[1]; [2],19%
same,"treatment-related dehydration, patients",[1]; [2],6%
same,"treatment-related diarrhoea, patients",[1]; [2],21%
same,"treatment-related dyspepsia, patients",[1]; [2],6%
same,"treatment-related fatigue, patients",[1]; [2],37%
same,"treatment-related hypomagnesaemia, patients",[1]; [2],6%
same,"treatment-related neutropenia, patients",[1]; [2],21%
same,"treatment-related vomiting, patients",[1]; [2],8%

# — PMC6738068 (British Journal of Cancer, 2019)
